Structures are written as SMILES. Where “and” joins values, the source holds several entries; their conditions need not be identical. Equal entries are not always repeated.

This assay has as its system 435261-313-R-J1-PDC tumor spheroid viability. Briefly: Anticancer human tumor 435261-313-R-J1-PDC patient-derived colon adenocarcinoma cell line growth inhibition [PI3K]. The conditions noted are these: spheroids with HUVEC and MSC; for viability, T/C: stronger effect = lower value. The procedure, abridged:
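Targeted small molecules plus PI3K inhibitors, half-log dose series from Cmax (default top 10 microM), were applied to heterotypic spheroids of cancer cells with HUVEC and MSCs. Viability indicated growth inhibition.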

Setting [1] is: curve of first compound, second compound 0.0316 µM.
[2] abbreviates: curve of first compound, second compound 0.1 µM.
Setting [3] is: curve of first compound, second compound 0.316 µM.
Setting [4] is: curve of first compound, second compound 1 µM.
The mark [5] stands for this setting: second compound 0.0316 µM, first compound 0.0316 µM.
The mark [6] stands for this setting: second compound 0.0316 µM, first compound 0.1 µM.
The mark [7] stands for this setting: second compound 0.1 µM, first compound 0.0316 µM.
Where [8] appears, read: second compound 0.1 µM, first compound 0.1 µM.
Where [9] appears, read: second compound 0.316 µM, first compound 0.0316 µM.
Setting [10] is: second compound 0.316 µM, first compound 0.1 µM.
Where [11] appears, read: second compound 1 µM, first compound 0.0316 µM.
The mark [12] stands for this setting: second compound 1 µM, first compound 0.1 µM.
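Further: spheroids exposed to compounds for 7 days.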

Take `CC(C)n1nc(-c2ccc3oc(N)nc3c2)c2c(N)ncnc21` + Cc1nc(NC(=O)N2CCCC2C(N)=O)sc1-c1ccnc(C(C)(C)C(F)(F)F)c1: the IC50 (as a rule, the concentration needed to halve the response being measured) reads like this: under setting [1], 26.3 nM; under setting [2], 20.2 nM; under setting [3], 3.58 nM; under setting [4], < 0.316 nM; (curve of first compound, second compound 3.16 µM) < 0.316 nM; (curve of first compound, second compound 10 µM) < 0.316 nM. For the same compound, the viability, T/C (in general, the result in the treated group divided by that in the control group, in per cent) (second compound 0.0316 µM, first compound 0.000316 µM) is 83.6%; the viability, T/C (second compound 0.0316 µM, first compound 0.001 µM) is 93%; the viability, T/C (second compound 0.0316 µM, first compound 0.00316 µM) was 76.7%; the viability, T/C (second compound 0.0316 µM, first compound 0.01 µM) was 47.9%; the viability, T/C under setting [5] was 62%; the viability, T/C under setting [6] is 13.6%. Further, the viability, T/C (second compound 0.1 µM, first compound 0.000316 µM) is 76.9%; the viability, T/C (second compound 0.1 µM, first compound 0.001 µM) is 71.1%; the viability, T/C (second compound 0.1 µM, first compound 0.00316 µM) is 94.3%; the viability, T/C (second compound 0.1 µM, first compound 0.01 µM) is 65.6%; the viability, T/C under setting [7] was 38.6%; the viability, T/C under setting [8] is 15.4%. Further, the viability, T/C is, setting by setting: (second compound 0.316 µM, first compound 0.000316 µM) 46.4%; (second compound 0.316 µM, first compound 0.001 µM) 67.7%; (second compound 0.316 µM, first compound 0.00316 µM) 45.8%; (second compound 0.316 µM, first compound 0.01 µM) 40%; under setting [9], 18.3%; under setting [10], 12.8%. For the same compound, the viability, T/C was 30.6% (second compound 1 µM, first compound 0.000316 µM); 30.5% (second compound 1 µM, first compound 0.001 µM); 30.3% (second compound 1 µM, first compound 0.00316 µM); 20.2% (second compound 1 µM, first compound 0.01 µM); 19.6% under setting [11]; 9.5% under setting [12]. In addition, the viability, T/C reads like this: (second compound 3.16 µM, first compound 0.000316 µM) 13.1%; (second compound 3.16 µM, first compound 0.001 µM) 23.9%; (second compound 3.16 µM, first compound 0.00316 µM) 21.7%; (second compound 3.16 µM, first compound 0.01 µM) 19.1%; (second compound 3.16 µM, first compound 0.0316 µM) 12.1%; (second compound 3.16 µM, first compound 0.1 µM) 7.83%. The viability, T/C was 10.6% (second compound 10 µM, first compound 0.000316 µM); 10.1% (second compound 10 µM, first compound 0.001 µM); 9.88% (second compound 10 µM, first compound 0.00316 µM); 8.69% (second compound 10 µM, first compound 0.01 µM); 4.8% (second compound 10 µM, first compound 0.0316 µM); 4.03% (second compound 10 µM, first compound 0.1 µM).
As for `CC(Nc1ncnc2nc[nH]c12)c1cc2cccc(Cl)c2c(=O)n1-c1ccccc1` (stereo not given), the viability, T/C is 77.1% [middle of 7 runs] (compound 1 µM) and 70.9% [middle of 7 runs] (compound 3.16 µM).
Regarding `CC(Cn1ccc(-c2ccc(C#N)c(Cl)c2)n1)NC(=O)c1cc(C(C)O)[nH]n1` (stereo not given), the viability, T/C (compound 0.0316 µM) is 97.2% and 88.6% and 70.7%; the viability, T/C (compound 0.1 µM) was 108% and 96.9% and 109%; the viability, T/C (compound 0.316 µM) was 130% and 117% and 107%; the viability, T/C (compound 1 µM) is 79.9% and 113% and 70.2%; the viability, T/C (compound 3.16 µM) is 110% and 105% and 108%; the viability, T/C (compound 10 µM) was 120% and 102% and 99.3%. Under “curve of compound”, the IC50 was > 10000 nM.
As for `C#Cc1c(F)ccc2cc(O)cc(-c3ncc4c(N5CC6CCC(C5)N6)nc(OCC56CCCN5CC(F)C6)nc4c3F)c12` (stereo not given), the viability, T/C runs as follows: (compound 0.0316 µM) 89.8% and 97.7% and 83.1%; (compound 0.1 µM) 91.7% and 82.7% and 95.5%; (compound 0.316 µM) 124% and 84% and 113%; (compound 1 µM) 95.2% and 62.6% and 64%; (compound 3.16 µM) 61.5% and 78.3% and 73.5%; (compound 10 µM) 36.6% and 30.7% and 31.1%. In addition, the IC50 (curve of compound) is 5360 nM and 5460 nM and 5560 nM.
On to `CC(C)NCC(C(=O)N1CCN(c2ncnc3c2C(C)CC3O)CC1)c1ccc(Cl)cc1` (stereo not given) + COc1c(OCCCN2CCOCC2)ccc2c3n(c(=NC(=O)c4cnc(N)nc4)nc12)CCN3, for which the concentration for half-maximal inhibition (IC50) is 765 nM (curve of first compound, second compound 0.00316 µM); 664 nM (curve of first compound, second compound 0.01 µM); < 31.6 nM under setting [1]; < 31.6 nM under setting [2]; < 31.6 nM under setting [3]; < 31.6 nM under setting [4]. For the same compound, the viability, T/C is, setting by setting: (second compound 0.00316 µM, first compound 0.0316 µM) 77.5%; (second compound 0.00316 µM, first compound 0.1 µM) 57.4%; (second compound 0.00316 µM, first compound 0.316 µM) 67.4%; (second compound 0.00316 µM, first compound 1 µM) 45%; (second compound 0.00316 µM, first compound 3.16 µM) 25.9%; (second compound 0.00316 µM, first compound 10 µM) 18.1%. The viability, T/C was 35.5% (second compound 0.01 µM, first compound 0.0316 µM); 72.5% (second compound 0.01 µM, first compound 0.1 µM); 53.8% (second compound 0.01 µM, first compound 0.316 µM); 45.8% (second compound 0.01 µM, first compound 1 µM); 37.2% (second compound 0.01 µM, first compound 3.16 µM); 22.3% (second compound 0.01 µM, first compound 10 µM). For the same compound, the viability, T/C under setting [5] was 29%; the viability, T/C under setting [6] is 24.9%; the viability, T/C (second compound 0.0316 µM, first compound 0.316 µM) is 40.3%; the viability, T/C (second compound 0.0316 µM, first compound 1 µM) was 17.9%; the viability, T/C (second compound 0.0316 µM, first compound 3.16 µM) is 17.2%; the viability, T/C (second compound 0.0316 µM, first compound 10 µM) was 13.7%. Also, the viability, T/C was 16.9% under setting [7]; 13.9% under setting [8]; 18.2% (second compound 0.1 µM, first compound 0.316 µM); 14.3% (second compound 0.1 µM, first compound 1 µM); 14.1% (second compound 0.1 µM, first compound 3.16 µM); 8.48% (second compound 0.1 µM, first compound 10 µM). The viability, T/C runs as follows: under setting [9], 8.02%; under setting [10], 10%; (second compound 0.316 µM, first compound 0.316 µM) 8.48%; (second compound 0.316 µM, first compound 1 µM) 7.53%; (second compound 0.316 µM, first compound 3.16 µM) 6.85%; (second compound 0.316 µM, first compound 10 µM) 3.75%. Besides, the viability, T/C under setting [11] is 3.46%; the viability, T/C under setting [12] is 4.26%; the viability, T/C (second compound 1 µM, first compound 0.316 µM) is 3.88%; the viability, T/C (second compound 1 µM, first compound 1 µM) is 3.78%; the viability, T/C (second compound 1 µM, first compound 3.16 µM) was 3.18%; the viability, T/C (second compound 1 µM, first compound 10 µM) is 1.67%.

The values above are taken from PubChem BioAssay AID1963976 (Molecular Pharmacology Branch, DTP, NCI, 2024).
